Data as given in patent US8829014B2, “Thiazole and thiophene analogues, and their use in treating autoimmune diseases and cancers” (Board of Supervisors of Louisiana State University and …, priority 2006, dated 2014).
Marks after values point to notes of the source that are not given here.

Assays:
Format in all cases: cell-based
[1] = system: NF-κB; experiment: TNF-α-induced NF-κB-dependent luciferase expression in HEK cells; parameters: NF-κB % inhibition: concentration or dose not given beside the values; settings: TNF-α-induced; compound added 1 h before inducer, luciferase 24 h later; normalized to DMSO vehicle
[2] = system: AP-1; experiment: PMA-induced AP-1 luciferase expression in HEK cells; settings: PMA-induced; compound added 1 h before inducer, luciferase 24 h later; normalized to DMSO vehicle
[3] = system: vascular smooth muscle cells (VSMC); experiment: LDH release cytotoxicity in VSMC; settings: VSMC, 10 μM, 48 h, relative to vehicle
Experimental: (§1) Additional compounds have also been tested for their ability to inhibit both TNF-α-induced NF-κB—expression and PMA-induced AP-1 expression. In both tests, the compound was added for 1 h, then the appropriate inducer was added, and luciferase activity was monitored 24 h later. Values were then normalized to the vehicle control, DMSO. Following the initial luciferase screens, studies were conducted to assess the cytotoxicity of the compounds in normal cells such as VSMC, HUVEC, or HPT cells. Human umbilical vein endothelial cells (HUVEC) represent the normal endothelium, vascular smooth muscle cells (VSMC) were represented by cells from the adult rat aorta, and human proximal tubule (HPT) cells represent the normal proximal tubule in vivo. These cells were grown to near confluency in multi-well plates, and were then treated for 48 h with either vehicle (0.1% DMSO) or 10 μM of each drug candidate. Following treatment, the media from the VSMC and HUVEC incubations were removed, and the amount of lactate dehydrogenase (LDH) released into the medium was determined with a commercial kit. LDH is normally confined to the cytosol, and its release represents “leakiness” of the plasma membrane. LDH activity was expressed as % increase over vehicle-treated cells. In another assay of viability, the treated VSMC and HUVEC were removed by trypsinization and treated with trypan blue, a dye that is taken up only by dead cells. The number of both live and dead cells was counted using an automated cell viability analyzer. The % decrease in numbers of viable cells was determined. Toxicity in the treated HPT cells was determined by the ethidium homodimer (EthHD) uptake assay. EthHD is a fluorescent dye that is excluded from live cells, but is taken up by cells that have lost permeability barriers. Inside the cell, EthHD produces a strong fluorescent signal, which is proportional to the number of dead cells. Results were expressed as a % increase in cell death over vehicle-treated cells. The lead compounds were also tested in two pairs of cell lines from either the skin or prostate, one tumorigenic and one non-tumorigenic, to test for any differences in toxicity or heightened sensitivity in the tumorigenic lines. The cells were treated for 48 h with vehicle (0.1% DMSO) or 10 μM of each drug candidate. Following treatment, the viability of the cells was determined by the MTT assay. In this assay, the MTT dye is converted only in viable cells by intracellular enzymes to a colorimetric product that is quantitated by a microplate reader.
(§2) For the results in Table 13, cells were grown to near confluency in multi-well plates, then treated for 48 h with either vehicle (0.1% DMSO) or 10 μM of each drug candidate. Following treatment, the media from the VSMC and HUVEC incubations were removed, and the amount of lactate dehydrogenase (LDH) released into the medium was determined with a commercial kit and expressed as a % increase over vehicle-treated cells. HPT toxicity was determined by the ethidium homodimer (EthHD) uptake assay. Inside the cell, EthHD produces a strong fluorescent signal, which is proportional to the amount of cell death, expressed as a % increase in cell death over vehicle-treated cells. The lead compounds were also tested in two pairs of cell lines from the skin or prostate, one tumorigenic and one non-tumorigenic, to test for differing toxicity or heightened sensitivity in the tumorigenic lines. The cells were treated for 48 h with vehicle (0.1% DMSO) or 10 μM of each drug candidate, and the viability of the cells was determined by the MTT assay, expressed as a % decrease in viability compared to vehicle-treated cells. The in vivo inflammation model measured the % inhibition of rat paw edema induced by carageenan injection.

[4] = system: Human umbilical vein endothelial cells (HUVEC); experiment: LDH release cytotoxicity in HUVEC; settings: HUVEC, 10 μM, 48 h, relative to vehicle
Experimental: as §1, §2

[5] = system: vascular smooth muscle cells (VSMC); experiment: Trypan blue viability count in VSMC; settings: VSMC, 10 μM, 48 h, relative to vehicle
Experimental: as §1

[6] = system: Human umbilical vein endothelial cells (HUVEC); experiment: Trypan blue viability count in HUVEC; settings: HUVEC, 10 μM, 48 h, relative to vehicle
Experimental: as §1

[7] = system: human proximal tubule (HPT) cells; experiment: Ethidium homodimer (EthHD) uptake toxicity assay in HPT cells; settings: 10 μM, 48 h, relative to vehicle
Experimental: as §1, §2

[8] = system: cell lines from the skin, one tumorigenic and one non-tumorigenic; experiment: MTT viability in skin cell line pair, tumorigenic and non-tumorigenic
Experimental: as §1, §2

[9] = system: eIF4E; experiment: eIF4E inhibitor screen: luciferase under FGF 5′UTR in FaDu cells (highly cap-dependent translation); settings: 1.0 μM, 48 h, FaDu UTR cells, normalized to DMSO (FIG. 8)
Text: Since highly cap-dependent translation is associated with synthesis of proteins involved in cancer, a compound that inhibits this pathway may be used as an anti-cancer agent. The assay was developed by cloning the highly structured 5′ UTR of FGF, which requires high levels of eIF4E before protein synthesis can initiate, into the proper orientation of the reporter gene luciferase, and then stably transfecting the modified luciferase gene into the cell line FaDu that is known to have high levels of eIF4E. The activity of luciferase is then monitored in the presence and absence of the tested compound.
Generation of Stable Cell Lines: The pMS110 plasmid (pGL3-control plasmid from Promega which contains a neo selectable marker) was used to generate pMS110-5′UTR by cloning the 5′ UTR of FGF just upstream of the luciferase AUG start codon. FaDu cells, a head and neck cancer cell line, were transfected using Lipofectamine2000 (Invitrogen). Twenty-four hours after transfection G418 was added at 500 μg/ml. Cells were maintained in G418 for 14 days, and then individual colonies were transferred to a 96-well plate for propagation. Individual clones were analyzed for luciferase expression by plating 10^4 cells per well in a 96-well plate for 24 hours before lysing the cells and analyzing for luciferase activity in a Victor III (Perkin Elmer) or Lucy2 (Rosys Anthos). FaDu9000 and FaDuUTR were the clones that expressed the highest level of active luciferase following transfection of pMS110 and pMS110-5′UTR, respectively.
Analysis of Rapamycin Responsiveness: Cells of FaDu9000 and FaDuUTR were plated at 1×10^4 cells/well in a 96-well dish. Twenty-four hours after plating, 0.1% DMSO (vehicle control) or 10 nM rapamycin were added to each well, and the cells were maintained for an additional 24 or 48 hours. The cells were then lysed and luciferase activity was determined using BriteGlo (Promega) as per manufacturer's instruction and recorded using the Victor III. Following subtraction of background activity, the mean value of quadruplicate samples for a given experiment was determined, and the treated cells were normalized to the control. At least four separate experiments were conducted, and the mean and standard error were calculated. To determine if rapamycin affected cell viability, an MTS assay (Cell Proliferation One Solution, Promega) was carried out on each population at 48 hours in two separate experiments.
The FaDu cell line stably transfected with FGF 5′UTR was used to screen thirty-nine representative compounds, each at a concentration of 1.0 μM. Additional cells were treated with vehicle, 0.3% DMSO. Cells were plated for twenty-four hours in a 96-well plate. Each compound was then added to triplicate wells, and the cells were incubated for forty-eight hours before measuring luciferase activity as above. The mean luciferase activity was measured using Promega's Brite-Glo kit, and the mean for each sample was normalized to DMSO. The experiment was then repeated, and the average and standard deviation of the two experiments were determined (FIG. 8).

Q: For `COc1ccccc1-n1c(-c2cc(-c3ccncc3)c(N3CCOCC3)s2)nc2ccccc2c1=O` [PMCR206], which NF-κB % inhibition [1] is on record?
A: 31%

Q: What about the AP-1 % inhibition [2] of the same molecule?
A: 33%

Q: What about the “LDH release % Increase VSMC” value [3] of the same molecule?
A: 0%

Q: And the “LDH release % Increase HUVEC” value [4]?
A: −1%

Q: What about the “Viable Cells % Decrease VSMC” value [5] of the same molecule?
A: 0%

Q: And the “Viable Cells % Decrease HUVEC” value [6]?
A: 12%

Q: What about the “Cell Death (EthHD) % Increase HPT” value [7] of the same molecule?
A: 147# %

Q: What about the “Viability (MTT) % Decrease HaCaT” value [8] of the same molecule?
A: 11%

Q: What about the “Viability (MTT) % Decrease SRB12-p9” value [8] of the same molecule?
A: 30# %

Q: Which NF-κB % inhibition [1] does the source give for `COc1ccc(-n2c(-c3cc(-c4ccc(S(C)(=O)=O)cc4)c(N4CCOCC4)s3)nc3ccccc3c2=O)cc1` [PMCR216] here?
A: 60** %

Q: What about the AP-1 % inhibition [2] of the same molecule?
A: 10%

Q: And the “LDH release % Increase VSMC” value [3]?
A: −10%

Q: And the “LDH release % Increase HUVEC” value [4]?
A: 0%

Q: And the “Viable Cells % Decrease VSMC” value [5]?
A: 6%

Q: What about the “Viable Cells % Decrease HUVEC” value [6] of the same molecule?
A: −1%

Q: And the “Cell Death (EthHD) % Increase HPT” value [7]?
A: 152# %

Q: What about the “Viability (MTT) % Decrease HaCaT” value [8] of the same molecule?
A: −21%

Q: And the “Viability (MTT) % Decrease SRB12-p9” value [8]?
A: 16%

Q: Which NF-κB % inhibition [1] does the source give for `O=c1c2ccccc2nc(-c2cc(-c3ccncc3)c(N3CCOCC3)s2)n1-c1ccccc1Cl` [PMCR224] here?
A: 80** %

Q: And the AP-1 % inhibition [2]?
A: 45%

Q: What about the “LDH release % Increase VSMC” value [3] of the same molecule?
A: 18%

Q: What about the “LDH release % Increase HUVEC” value [4] of the same molecule?
A: 28# %

Q: What about the “Viable Cells % Decrease VSMC” value [5] of the same molecule?
A: 63# %

Q: And the “Viable Cells % Decrease HUVEC” value [6]?
A: 43# %

Q: What about the “Cell Death (EthHD) % Increase HPT” value [7] of the same molecule?
A: 266# %

Q: What about the “Viability (MTT) % Decrease HaCaT” value [8] of the same molecule?
A: −4%

Q: And the “Viability (MTT) % Decrease SRB12-p9” value [8]?
A: 13%

Q: `O=c1c2ccccc2nc(-c2cc(-c3ccncc3)c(N3CCOCC3)s2)n1-c1ccc(Cl)cc1` [PMCR236] was tested. Which NF-κB % inhibition [1] did it give?
A: 68** %

Q: What about the AP-1 % inhibition [2] of the same molecule?
A: 32%

Q: And the “LDH release % Increase VSMC” value [3]?
A: 91# %

Q: What about the “LDH release % Increase HUVEC” value [4] of the same molecule?
A: 39# %

Q: What about the “Viable Cells % Decrease VSMC” value [5] of the same molecule?
A: 94# %

Q: What about the “Viable Cells % Decrease HUVEC” value [6] of the same molecule?
A: 60# %

Q: What about the “Cell Death (EthHD) % Increase HPT” value [7] of the same molecule?
A: 172# %

Q: What about the “Viability (MTT) % Decrease HaCaT” value [8] of the same molecule?
A: 6%

Q: And the “Viability (MTT) % Decrease SRB12-p9” value [8]?
A: 19%

Q: With `CC(=O)c1ccc(-n2c(-c3cc(-c4ccncc4)c(N4CCOCC4)s3)nc3ccccc3c2=O)cc1` [PMCR242] as the molecule, how does the NF-κB % inhibition [1] read?
A: 66** %

Q: And the AP-1 % inhibition [2]?
A: 84** %

Q: And the “LDH release % Increase VSMC” value [3]?
A: 68# %

Q: What about the “LDH release % Increase HUVEC” value [4] of the same molecule?
A: 61# %

Q: And the “Viable Cells % Decrease VSMC” value [5]?
A: 90# %

Q: What about the “Viable Cells % Decrease HUVEC” value [6] of the same molecule?
A: 60# %

Q: What about the “Cell Death (EthHD) % Increase HPT” value [7] of the same molecule?
A: 50# %

Q: What about the “Viability (MTT) % Decrease HaCaT” value [8] of the same molecule?
A: −28%

Q: What about the “Viability (MTT) % Decrease SRB12-p9” value [8] of the same molecule?
A: 14%

Q: For “N-{4-{5-[4-(4-acetylamino-phenyl)-5-morpholin-4-yl-thiophene-2-carbonyl]-2-morpholin-4-yl-thiophene-3-yl}-phenyl)-acetamide [Example 113]”, which “luciferase expression under the control of the FGF 5′UTR” value [9] is on record?
A: increased luciferase expression
